Earlier results, collected in patent publication US20100322961A1, “Intranasal Drug Delivery System” (priority 2007, published 2010).

Settings: pure substance; background statement

Structure (SMILES): COc1cc(CNC(=O)CCCC/C=C/C(C)C)ccc1O [capsaicin]
- pungency (Scoville heat units): 15,000,000-16,000,000 Scoville units
